Source: US12275731B2, “Azaindole inhibitors of wild-type and mutant forms of LRRK2” (DANA-FARBER CANCER INSTITUTE, INC., priority 2018, dated 2025)

Legend:
Assay in all cases: KinomeScan profiling
Type in all cases: binding
KIT-autoinhibited = target: T1, KIT-autoinhibited (Homo sapiens, UniProt P10721); details: read-out: % control
T1 construct: purchased KinomeScan®
In short: (§1)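 Normalised RLU (% control; DMSO 100%, positive control 0%) was measured for compounds dosed at 1 μM over 468 kinases, active cut-off <35%.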

MAPKAPK2 = MAPKAPK2 (Homo sapiens, UniProt P49137); details: MAPKAPK2, 1 μM; read-out: % control
MAPKAPK2, sequence (P49137 whole entry): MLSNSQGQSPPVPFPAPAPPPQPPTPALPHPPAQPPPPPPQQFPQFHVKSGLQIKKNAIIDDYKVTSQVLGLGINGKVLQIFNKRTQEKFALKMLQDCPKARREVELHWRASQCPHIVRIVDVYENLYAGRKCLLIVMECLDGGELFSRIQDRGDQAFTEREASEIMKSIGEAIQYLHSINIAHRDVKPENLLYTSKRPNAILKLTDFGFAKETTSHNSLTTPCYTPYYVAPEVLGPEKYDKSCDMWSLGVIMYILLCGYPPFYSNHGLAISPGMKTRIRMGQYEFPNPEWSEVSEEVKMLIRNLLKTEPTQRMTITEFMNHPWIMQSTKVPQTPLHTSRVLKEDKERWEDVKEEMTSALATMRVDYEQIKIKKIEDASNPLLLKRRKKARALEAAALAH
In short: as §1

MEK2 = MEK2 (Homo sapiens, UniProt P36507); details: MEK2, 1 μM; read-out: % control
MEK2, sequence (P36507 whole entry): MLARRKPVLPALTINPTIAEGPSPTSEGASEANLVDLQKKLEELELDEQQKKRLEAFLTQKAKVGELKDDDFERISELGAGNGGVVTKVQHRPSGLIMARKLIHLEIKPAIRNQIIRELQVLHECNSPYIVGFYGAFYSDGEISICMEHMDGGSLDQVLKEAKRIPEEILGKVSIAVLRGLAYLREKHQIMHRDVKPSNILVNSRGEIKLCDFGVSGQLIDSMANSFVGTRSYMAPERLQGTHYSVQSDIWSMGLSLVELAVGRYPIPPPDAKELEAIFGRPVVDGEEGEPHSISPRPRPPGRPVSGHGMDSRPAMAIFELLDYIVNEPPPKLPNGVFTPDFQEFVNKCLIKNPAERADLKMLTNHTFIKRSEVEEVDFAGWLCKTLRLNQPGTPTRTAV
In short: as §1

MEK4 = target: T2, MEK4 (Homo sapiens, UniProt P45985); details: MEK4, 1 μM; read-out: % control
T2 sequence (P45985 1-399): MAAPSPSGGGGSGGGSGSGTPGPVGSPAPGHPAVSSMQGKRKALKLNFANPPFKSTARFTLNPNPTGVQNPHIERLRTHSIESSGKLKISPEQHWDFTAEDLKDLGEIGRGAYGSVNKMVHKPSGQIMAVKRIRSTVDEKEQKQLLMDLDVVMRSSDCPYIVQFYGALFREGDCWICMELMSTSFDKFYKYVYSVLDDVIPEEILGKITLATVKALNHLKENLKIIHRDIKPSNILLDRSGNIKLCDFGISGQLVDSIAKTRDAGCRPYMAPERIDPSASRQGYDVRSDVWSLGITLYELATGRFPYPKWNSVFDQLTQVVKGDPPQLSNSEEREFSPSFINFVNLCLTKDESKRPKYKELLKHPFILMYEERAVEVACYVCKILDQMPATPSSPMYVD
In short: as §1

PIP5K1C = target: T3, PIP5K1C (Homo sapiens, UniProt O60331); details: read-out: % control
T3 construct: purchased KinomeScan® (panel service)
T3 sequence (O60331 whole entry): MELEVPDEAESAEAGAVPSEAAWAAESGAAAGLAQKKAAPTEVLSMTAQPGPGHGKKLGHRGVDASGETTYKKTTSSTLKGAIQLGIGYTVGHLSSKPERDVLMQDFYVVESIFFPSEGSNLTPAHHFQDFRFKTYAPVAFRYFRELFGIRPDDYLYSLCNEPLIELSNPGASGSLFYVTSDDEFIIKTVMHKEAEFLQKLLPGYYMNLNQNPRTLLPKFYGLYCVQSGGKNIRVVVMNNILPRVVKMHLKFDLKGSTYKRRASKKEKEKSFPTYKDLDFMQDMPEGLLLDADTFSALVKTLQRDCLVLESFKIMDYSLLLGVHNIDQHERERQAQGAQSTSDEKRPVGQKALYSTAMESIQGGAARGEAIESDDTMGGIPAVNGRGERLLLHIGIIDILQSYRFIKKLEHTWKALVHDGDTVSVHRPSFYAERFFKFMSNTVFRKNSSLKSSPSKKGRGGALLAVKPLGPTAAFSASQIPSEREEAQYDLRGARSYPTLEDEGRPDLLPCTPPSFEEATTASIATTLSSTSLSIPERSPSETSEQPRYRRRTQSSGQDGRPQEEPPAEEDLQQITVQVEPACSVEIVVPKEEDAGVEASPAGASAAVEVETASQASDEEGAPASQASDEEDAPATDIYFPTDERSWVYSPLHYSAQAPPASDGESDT
In short: as §1

[1] = target: T4, RPS6KA4(Kin.Dom.2-C-terminal) (Homo sapiens, UniProt O75676); details: read-out: % control
T4 construct: RPS6KA4(Kin.Dom.2-C-terminal)
T4 sequence (O75676 411-674 limits assumed): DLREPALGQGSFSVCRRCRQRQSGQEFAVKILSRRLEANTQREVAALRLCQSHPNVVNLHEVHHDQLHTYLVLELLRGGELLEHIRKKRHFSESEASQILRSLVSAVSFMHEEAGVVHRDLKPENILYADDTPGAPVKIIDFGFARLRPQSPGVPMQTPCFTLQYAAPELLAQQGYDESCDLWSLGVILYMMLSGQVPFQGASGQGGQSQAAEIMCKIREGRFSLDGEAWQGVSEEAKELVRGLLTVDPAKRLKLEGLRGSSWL
In short: as §1

TAK1 = target: T5, TAK1 (Homo sapiens, UniProt O43318); details: TAK1, 1 μM; read-out: % control
T5 construct: purchased KinomeScan® (panel service)
T5 sequence (O43318 1-606): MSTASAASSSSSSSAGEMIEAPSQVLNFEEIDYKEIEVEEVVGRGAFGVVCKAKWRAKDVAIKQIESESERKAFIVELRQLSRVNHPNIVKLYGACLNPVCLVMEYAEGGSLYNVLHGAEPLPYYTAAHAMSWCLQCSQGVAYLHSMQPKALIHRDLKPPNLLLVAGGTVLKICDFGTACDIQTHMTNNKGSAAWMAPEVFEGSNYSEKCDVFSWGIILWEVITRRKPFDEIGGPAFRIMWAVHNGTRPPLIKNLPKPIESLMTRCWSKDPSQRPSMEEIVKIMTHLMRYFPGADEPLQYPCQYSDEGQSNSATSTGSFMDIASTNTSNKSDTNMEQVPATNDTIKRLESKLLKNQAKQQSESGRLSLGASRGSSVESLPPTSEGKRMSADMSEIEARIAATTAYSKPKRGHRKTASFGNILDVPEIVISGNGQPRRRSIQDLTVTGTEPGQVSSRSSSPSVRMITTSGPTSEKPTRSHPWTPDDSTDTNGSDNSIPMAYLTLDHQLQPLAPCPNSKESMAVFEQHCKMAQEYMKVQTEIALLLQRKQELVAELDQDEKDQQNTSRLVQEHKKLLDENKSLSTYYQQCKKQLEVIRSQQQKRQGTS
In short: as §1

TEC = target: T6, TEC (Homo sapiens, UniProt P42680); details: read-out: % control
T6 sequence (P42680 1-631): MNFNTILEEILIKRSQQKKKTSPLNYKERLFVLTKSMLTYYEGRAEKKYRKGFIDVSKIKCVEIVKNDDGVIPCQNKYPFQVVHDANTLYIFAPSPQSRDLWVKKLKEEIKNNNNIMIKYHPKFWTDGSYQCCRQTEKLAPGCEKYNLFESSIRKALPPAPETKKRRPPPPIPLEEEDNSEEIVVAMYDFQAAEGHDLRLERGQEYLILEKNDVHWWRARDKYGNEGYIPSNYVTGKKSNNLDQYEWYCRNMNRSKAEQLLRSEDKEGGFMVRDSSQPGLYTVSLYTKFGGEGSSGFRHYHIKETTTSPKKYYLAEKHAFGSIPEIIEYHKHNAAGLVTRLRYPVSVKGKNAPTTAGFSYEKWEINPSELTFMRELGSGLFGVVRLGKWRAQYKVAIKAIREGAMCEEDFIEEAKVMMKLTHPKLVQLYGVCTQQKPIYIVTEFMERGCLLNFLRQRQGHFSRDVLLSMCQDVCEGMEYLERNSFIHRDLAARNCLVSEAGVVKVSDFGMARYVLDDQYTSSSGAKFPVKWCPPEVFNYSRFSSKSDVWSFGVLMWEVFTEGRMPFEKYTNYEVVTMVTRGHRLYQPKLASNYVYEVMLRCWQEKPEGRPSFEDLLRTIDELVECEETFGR
In short: as §1

TIE1 = TIE1 (Homo sapiens, UniProt P35590); details: TIE1, 1 μM; read-out: % control
TIE1, sequence (P35590 22-1138): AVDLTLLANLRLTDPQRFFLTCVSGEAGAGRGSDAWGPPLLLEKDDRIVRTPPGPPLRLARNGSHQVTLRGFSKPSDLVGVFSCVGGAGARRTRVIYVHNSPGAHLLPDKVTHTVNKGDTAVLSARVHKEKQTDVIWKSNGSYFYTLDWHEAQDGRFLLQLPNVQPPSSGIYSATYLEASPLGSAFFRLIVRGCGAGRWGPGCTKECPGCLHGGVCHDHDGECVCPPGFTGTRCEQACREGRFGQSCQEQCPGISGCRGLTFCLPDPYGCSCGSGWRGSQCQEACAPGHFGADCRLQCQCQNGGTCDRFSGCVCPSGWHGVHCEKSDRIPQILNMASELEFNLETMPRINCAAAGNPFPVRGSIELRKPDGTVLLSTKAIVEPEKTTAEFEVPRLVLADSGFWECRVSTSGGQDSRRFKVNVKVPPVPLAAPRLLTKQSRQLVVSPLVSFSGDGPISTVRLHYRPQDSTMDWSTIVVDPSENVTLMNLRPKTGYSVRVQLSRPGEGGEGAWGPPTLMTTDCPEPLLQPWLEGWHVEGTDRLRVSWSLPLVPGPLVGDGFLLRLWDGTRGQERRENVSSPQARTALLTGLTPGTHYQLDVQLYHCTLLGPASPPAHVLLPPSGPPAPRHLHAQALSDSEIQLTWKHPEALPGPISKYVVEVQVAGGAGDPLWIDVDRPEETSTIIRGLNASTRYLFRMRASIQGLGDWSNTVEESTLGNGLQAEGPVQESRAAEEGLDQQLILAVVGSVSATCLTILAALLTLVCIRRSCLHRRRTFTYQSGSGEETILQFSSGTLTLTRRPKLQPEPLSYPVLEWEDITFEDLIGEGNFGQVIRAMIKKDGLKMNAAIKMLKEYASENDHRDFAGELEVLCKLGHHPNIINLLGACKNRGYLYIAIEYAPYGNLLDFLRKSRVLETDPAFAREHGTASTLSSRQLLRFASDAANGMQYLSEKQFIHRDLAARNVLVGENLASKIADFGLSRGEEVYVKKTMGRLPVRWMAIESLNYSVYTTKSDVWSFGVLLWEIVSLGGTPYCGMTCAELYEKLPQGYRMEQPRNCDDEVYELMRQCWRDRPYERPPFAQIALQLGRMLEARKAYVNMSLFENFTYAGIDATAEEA
In short: as §1

T1 sequence (P10721 544-976 limits assumed): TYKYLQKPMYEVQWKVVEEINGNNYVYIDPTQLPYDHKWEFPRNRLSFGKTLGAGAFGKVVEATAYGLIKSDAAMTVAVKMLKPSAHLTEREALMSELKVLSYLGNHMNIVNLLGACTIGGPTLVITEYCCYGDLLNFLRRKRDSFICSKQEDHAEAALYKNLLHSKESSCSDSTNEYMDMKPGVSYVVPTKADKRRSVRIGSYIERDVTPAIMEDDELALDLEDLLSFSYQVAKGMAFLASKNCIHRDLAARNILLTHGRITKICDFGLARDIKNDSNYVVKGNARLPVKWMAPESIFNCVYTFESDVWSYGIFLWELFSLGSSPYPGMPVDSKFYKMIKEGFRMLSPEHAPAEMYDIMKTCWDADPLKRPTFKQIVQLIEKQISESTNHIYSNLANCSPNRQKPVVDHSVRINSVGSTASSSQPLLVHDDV

Row | SMILES | remaining binding at 1 µM (KIT-autoinhibited) | remaining binding at 1 µM (MAPKAPK2) | remaining binding at 1 µM (MEK2) | remaining binding at 1 µM (MEK4) | remaining binding at 1 µM (PIP5K1C) | remaining binding at 1 µM [1] | remaining binding at 1 µM (TAK1) | remaining binding at 1 µM (TEC) | remaining binding at 1 µM (TIE1)
1 | CNc1c(-c2ccc(C(=O)N3CCC(N4CCOCC4)CC3)cc2)cnc2[nH]cc(Cl)c12 [Compound 96, (4-(3-chloro-4-(methylamino)-1H-pyrrolo[2,3-b]pyridin-5-yl)phenyl)(4-morpholinopiperidin-1-yl)methanone] | 64% | 100% | 19% | 7.3% | 49% | 65% | 6.9% | 100% | 93%
2 | O=C(c1ccc(-c2cnc3[nH]cc(Cl)c3c2NC2CCCC2)cc1)N1CCC(N2CCOCC2)CC1 [Compound 101, (4-(3-chloro-4-(cyclopentylamino)-1H-pyrrolo[2,3-b]pyridin-5-yl)phenyl)(4-morpholinopiperidin-1-yl)methanone] | 100% | 51% | 87% | 28% | 57% | 99% | 6.1% | 93% | 92%
3 | CNc1c(-c2cnn([C@H]3CCN(C(C)=O)C[C@@H]3F)c2)cnc2[nH]cc(Cl)c12 [Compound 77, 1-((3S,4S)-4-(4-(3-chloro-4-(methylamino)-1H-pyrrolo[2,3-b]pyridin-5-yl)-1H-pyrazol-1-yl)-3-fluoropiperidin-1-yl)ethan-1-one] | 23% | 100% | 31% | 45% | 37% | 90% | 21% | 100% | 97%
